Measurements taken from ChEMBL document CHEMBL3227994, “Novel application of proton nuclear magnetic resonance spectroscopy in the identification of 2'-chloronordiazepam metabolites in the dog” (J Med Chem, 1979).

Key:
[1] = Drug excretion in Beagle dog urine assessed as conjugated form of 2'-chloro-4'-hydroxy nordiazepam at 10 mg/kg, po after 4 days by two-dimensional TLC analysis; type: ADME, organism-based, Canis lupus familiaris; design: dose 10 mg/kg, route oral; settings: in vivo, 96 h
[2] = Drug excretion in Beagle dog urine assessed as nonconjugated form of compound at 10 mg/kg, po after 4 days by two-dimensional TLC analysis; type: ADME, organism-based, Canis lupus familiaris; design: dose 10 mg/kg, route oral; settings: read-out: Drug excretion
[3] = Drug excretion in Beagle dog urine assessed as nonconjugated form of 2'-chloro-4'-hydroxy nordiazepam at 10 mg/kg, po after 4 days by two-dimensional TLC analysis; type: ADME, organism-based, Canis lupus familiaris; design: dose 10 mg/kg, route oral; settings: in vivo, 96 h
[4] = Drug excretion in Beagle dog feces assessed as conjugated form of 2'-chloro-4'-hydroxy nordiazepam at 10 mg/kg, po after 4 days by two-dimensional TLC analysis; type: ADME, organism-based, Canis lupus familiaris; design: dose 10 mg/kg, route oral; settings: in vivo, 96 h
[5] = Drug excretion in dog urine assessed as conjugated form of lorazepam at 10 mg/kg, iv; type: ADME, organism-based, Canis lupus familiaris; design: dose 10 mg/kg, route intravenous; settings: in vivo
[6] = Drug excretion in Beagle dog feces assessed as conjugated form of compound at 10 mg/kg, po after 4 days by two-dimensional TLC analysis; type: ADME, organism-based, Canis lupus familiaris; design: dose 10 mg/kg, route oral; settings: in vivo, 96 h
[7] = Drug excretion in dog urine assessed as conjugated form of lorazepam at 10 mg/kg, po; type: ADME, organism-based, Canis lupus familiaris; design: dose 10 mg/kg, route oral; settings: in vivo
[8] = Drug metabolism in Beagle dog urine assessed as formation of 2'-chloro-9-hydroxy nordiazepam at 10 mg/kg, po after 4 days by TLC analysis; type: ADME, organism-based, Canis lupus familiaris; design: dose 10 mg/kg, route oral; settings: in vivo, 96 h
[9] = Drug excretion in Beagle dog feces assessed as nonconjugated form of compound at 10 mg/kg, po after 4 days by two-dimensional TLC analysis; type: ADME, organism-based, Canis lupus familiaris; design: dose 10 mg/kg, route oral; settings: faeces, read-out: Drug excretion
[10] = Drug excretion in Beagle dog urine assessed as conjugated form of lorazepam at 10 mg/kg, po after 4 days by two-dimensional TLC analysis; type: ADME, organism-based, Canis lupus familiaris; design: dose 10 mg/kg, route oral; settings: in vivo, 96 h
[11] = Drug excretion in Beagle dog feces assessed as conjugated form of 2'-chloro-9-hydroxy nordiazepam at 10 mg/kg, po after 4 days by two-dimensional TLC analysis; type: ADME, organism-based, Canis lupus familiaris; design: dose 10 mg/kg, route oral; settings: in vivo, 96 h
[12] = Drug metabolism in Beagle dog urine assessed as formation of lorazepam at 10 mg/kg, po after 4 days by TLC analysis; type: ADME, organism-based, Canis lupus familiaris; design: dose 10 mg/kg, route oral; settings: in vivo, 96 h
[13] = Drug excretion in Beagle dog urine assessed as conjugated form of 2'-chloro-9-hydroxy nordiazepam at 10 mg/kg, po after 4 days by two-dimensional TLC analysis; type: ADME, organism-based, Canis lupus familiaris; design: dose 10 mg/kg, route oral; settings: in vivo, 96 h
[14] = Drug excretion in Beagle dog urine assessed as nonconjugated form of lorazepam at 10 mg/kg, po after 4 days by two-dimensional TLC analysis; type: ADME, organism-based, Canis lupus familiaris; design: dose 10 mg/kg, route oral; settings: in vivo, 96 h
[15] = Drug excretion in Beagle dog feces assessed as nonconjugated form of lorazepam at 10 mg/kg, po after 4 days by two-dimensional TLC analysis; type: ADME, organism-based, Canis lupus familiaris; design: dose 10 mg/kg, route oral; settings: in vivo, 96 h
[16] = Drug excretion in Beagle dog urine at 10 mg/kg, po measured within 6 days by liquid scintillation spectrophotometric analysis; type: ADME, organism-based, Canis lupus familiaris; design: dose 10 mg/kg, route oral; settings: in vivo, 144 h
[17] = Drug excretion in Beagle dog feces at 10 mg/kg, po measured within 6 days by liquid scintillation spectrophotometric analysis; type: ADME, organism-based, Canis lupus familiaris; design: dose 10 mg/kg, route oral; settings: in vivo, 144 h
[18] = Drug metabolism in Beagle dog urine assessed as formation of 2'-chloro-4'-hydroxy nordiazepam at 10 mg/kg, po after 4 days by TLC analysis; type: ADME, organism-based, Canis lupus familiaris; design: dose 10 mg/kg, route oral; settings: in vivo, 96 h
[19] = Drug excretion in Beagle dog urine assessed as nonconjugated form of 2'-chloro-9-hydroxy nordiazepam at 10 mg/kg, po after 4 days by two-dimensional TLC analysis; type: ADME, organism-based, Canis lupus familiaris; design: dose 10 mg/kg, route oral; settings: in vivo, 96 h
[20] = Drug excretion in Beagle dog feces assessed as nonconjugated form of 2'-chloro-9-hydroxy nordiazepam at 10 mg/kg, po after 4 days by two-dimensional TLC analysis; type: ADME, organism-based, Canis lupus familiaris; design: dose 10 mg/kg, route oral; settings: in vivo, 96 h
[21] = Drug excretion in Beagle dog urine at 10 mg/kg, po measured within 3 days by liquid scintillation spectrophotometric analysis; type: ADME, organism-based, Canis lupus familiaris; design: dose 10 mg/kg, route oral; settings: in vivo, 72 h
[22] = Drug excretion in Beagle dog feces assessed as nonconjugated form of 2'-chloro-4'-hydroxy nordiazepam at 10 mg/kg, po after 4 days by two-dimensional TLC analysis; type: ADME, organism-based, Canis lupus familiaris; design: dose 10 mg/kg, route oral; settings: in vivo, 96 h
[23] = Drug excretion in Beagle dog feces assessed as conjugated form of lorazepam at 10 mg/kg, po after 4 days by two-dimensional TLC analysis; type: ADME, organism-based, Canis lupus familiaris; design: dose 10 mg/kg, route oral; settings: in vivo, 96 h
[24] = Retention time of the compound; type: physicochemical

O=C1CN=C(c2ccccc2Cl)c2cc(Cl)ccc2N1 [DELORAZEPAM]
Drug excretion [1]: 2.8 %ID | dose excreted at 96 h [2]: 1.1% | Drug excretion [3]: 1 %ID | Drug excretion [4]: 5.3 %ID | Drug excretion [5]: 16 %ID | Drug excretion [6]: 3.8 %ID | Drug excretion [7]: 13 %ID | Drug metabolism [8]: 1.7 mg.equiv | dose excreted at 96 h [9]: 2.7% | Drug excretion [10]: 15.3 %ID | Drug excretion [11]: 7.3 %ID | Drug metabolism [12]: 10.7 mg.equiv | Drug excretion [13]: 2.5 %ID | Drug excretion [14]: 0.4 %ID | Drug excretion [15]: 4.2 %ID | Drug excretion [16]: 60.5 %ID | Drug excretion [17]: 28.5 %ID | Drug metabolism [18]: 1.6 mg.equiv | Drug excretion [19]: 1.1 %ID | Drug excretion [20]: 3.7 %ID | Drug excretion [21]: 58 %ID | Drug excretion [22]: 1.5 %ID | Drug excretion [23]: 19.9 %ID

O=C1Nc2ccc(Cl)cc2C(c2ccccc2Cl)=NC1O (centres undefined) [LORAZEPAM]
Retention_time [24]: 3.8 min
